# Source: PMC8580996, “2-Oxoglutarate derivatives can selectively enhance or inhibit the activity of human oxygenases” (Nature Communications, 2021)
# Several values for one entry are separate records, joined by “and”; a condition that tells them apart may be missing. Identical values can stand only once.
# Target: FIH (Homo sapiens, UniProt Q9NWT6)
# Test: FIH steady-state kinetic parameters (SPE-MS, initial hydroxylation rates)
# Type: biochemical
# Set-up: slope of initial reaction rate: unit not given here
# Procedure: Final 2OG/2OG derivative concentrations are given in Supplementary Figs. 5 and 6. Reactions were monitored with a rate of ~1 sample/40 s using the same SPE-MS configuration as described above. Data were analyzed as described above and the slopes of the initial reaction rates (Supplementary Figs. 5 and 6) fitted to a Michaelis–Menten plot using non-linear regression (GraphPad Prism 5). […]
# determine kinetic parameters for 2OG derivatives (continues on the following page). Maximum velocities (vapp ) and Michaelis constants (Kapp) of FIH were determined in independent triplicates for 2OG and the 2OG […]
# SPE-MS as described in the Methods section. […]
# acid (LAA), and 20 μM ammonium iron(II) sulfate hexahydrate (FAS, (NH4)2Fe(SO4)2·6H2O) in buffer (50 mM […]
# Tris, 50 mM NaCl, pH 7.5, 20° C). […]
# data are provided as a Source Data file. […]
# concentrations of 2OG; (b) hydroxylation rates used to determine kinetic parameters of FIH for 2OG; (c) time […]
# 3-methyl-2OG (1); (d) hydroxylation rates used to determine kinetic parameters of FIH for 1; (e) time course of […]
# 2OG (12); (f) hydroxylation rates used to determine kinetic parameters of FIH for 12; (g) time course of the FIH- […]
# (h) hydroxylation rates used to determine kinetic parameters of FIH for 14; (i) time course of the FIH-catalyzed […]
# (carboxycarbonyl)cyclopentane-1-carboxylic acid (22); (j) hydroxylation rates used to determine kinetic parameters of FIH for 22.
# Supplementary Figure 6. Hydroxylation rates of FIH-catalyzed CA1-20 hydroxylations used to determine kinetic parameters for 2OG derivatives (continues on the following page). Maximum velocities (vapp ) and […]
# ammonium iron(II) sulfate hexahydrate (FAS, (NH4)2Fe(SO4)2·6H2O) in buffer (50 mM Tris, 50 mM NaCl, pH […]
# Source data are provided as a Source […]
# of 2OG; (b) hydroxylation rates used to determine kinetic parameters of FIH for 2OG; (c) time course of the FIH-catalyzed hydroxylation reaction of the CA1-20 peptide for the shown concentrations of 3-methyl-2OG (1); (d) hydroxylation rates used to determine kinetic parameters of FIH for 1; (e) time course of the FIH -catalyzed hydroxylation reaction of the CA 1-20 peptide for the shown concentrations of 4 -methyl-2OG (12); (f) hydroxylation rates used to determine kinetic parameters of FIH for 12; (g) time course of the FIH-catalyzed hydroxylation reaction of the CA1-20 peptide for the shown concentrations of 4-ethyl-2OG (14); (h) hydroxylation rates used to determine kinetic parameters of FIH for 14; (i) time course of the FIH-catalyzed hydroxylation reaction of the CA1-20 peptide for the shown concentrations of 3-(carboxycarbonyl)cyclopentane-1-carboxylic acid (22); (j) hydroxylation rates used to determine kinetic parameters of FIH for 22.
# FIH, sequence (Q9NWT6 whole entry): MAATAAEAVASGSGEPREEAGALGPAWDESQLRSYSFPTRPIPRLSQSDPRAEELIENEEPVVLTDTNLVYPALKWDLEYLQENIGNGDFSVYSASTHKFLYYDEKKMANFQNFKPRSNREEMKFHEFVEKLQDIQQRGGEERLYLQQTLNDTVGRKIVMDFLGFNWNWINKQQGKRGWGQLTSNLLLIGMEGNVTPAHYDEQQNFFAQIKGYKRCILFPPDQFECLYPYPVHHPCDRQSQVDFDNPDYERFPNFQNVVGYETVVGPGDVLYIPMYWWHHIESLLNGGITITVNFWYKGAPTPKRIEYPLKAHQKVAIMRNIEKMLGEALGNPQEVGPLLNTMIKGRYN
smiles,measurement,setting,value
"O=C(O)CCC(=O)C(=O)O [2OG, 2-Oxoglutarate]",slope of initial reaction rate,"CA1-20, 0.25 μM 2OG",0.01003 and 0.007495
same,slope of initial reaction rate,"CA1-20, 0.5 μM 2OG",0.01547 and 0.01452 and 0.0138
same,slope of initial reaction rate,"CA1-20, 1 μM 2OG",0.01838 and 0.01865 and 0.02116
same,slope of initial reaction rate,"CA1-20, 2 μM 2OG",0.02416 and 0.02022 and 0.02356
same,slope of initial reaction rate,"CA1-20, 4 μM 2OG",0.02388 and 0.01977 and 0.02365
same,slope of initial reaction rate,"CA1-20, 8 μM 2OG",0.02261 and 0.02524
same,slope of initial reaction rate,"HIF-1a788-822, 0.1 μM 2OG",0.000581 and 0.000778 and 0.00072
same,slope of initial reaction rate,"HIF-1a788-822, 0.25 μM 2OG",0.001141 and 0.001302 and 0.001382
same,slope of initial reaction rate,"HIF-1a788-822, 0.5 μM 2OG",0.001962 and 0.002167 and 0.002275
same,slope of initial reaction rate,"HIF-1a788-822, 1 μM 2OG",0.003115 and 0.003005 and 0.00301
same,slope of initial reaction rate,"HIF-1a788-822, 2 μM 2OG",0.00418 and 0.004157 and 0.004411
same,slope of initial reaction rate,"HIF-1a788-822, 4 μM 2OG",0.004637 and 0.004674 and 0.005127
same,slope of initial reaction rate,"HIF-1a788-822, 8 μM 2OG",0.004319 and 0.005019 and 0.005929
same,slope of initial reaction rate,"HIF-1a788-822, 16 μM 2OG",0.00539 and 0.005468 and 0.006359
same,slope of initial reaction rate,"HIF-1a788-822, 32 μM 2OG",0.006447 and 0.005635
same,FIH Kmapp,HIF-1α788–822 substrate,0.84 µM
"CCC(CC(=O)C(=O)O)C(=O)O (stereo not drawn) [compound 14, 4-ethyl-2OG]",SPE-MS determined concentration of hydroxylated HIF-1a peptide,"0.5 uM compound 14, time 2.797 min",0.04266 µM and 0.0716 µM and 0.08092 µM
same,SPE-MS determined concentration of hydroxylated HIF-1a peptide,"1 uM compound 14, time 2.797 min",0.09973 µM and 0.05746 µM and 0.08941 µM
same,SPE-MS determined concentration of hydroxylated HIF-1a peptide,"1 uM compound 14, time 3.49667 min",0.115 µM and 0.07268 µM and 0.1031 µM
same,SPE-MS determined concentration of hydroxylated HIF-1a peptide,"1 uM compound 14, time 4.19733 min",0.119 µM
same,SPE-MS determined concentration of hydroxylated HIF-1a peptide,"2 uM compound 14, time 2.098 min",0.07647 µM and 0.1051 µM and 0.08874 µM
same,SPE-MS determined concentration of hydroxylated HIF-1a peptide,"2 uM compound 14, time 2.797 min",0.08846 µM and 0.1193 µM and 0.1194 µM
same,SPE-MS determined concentration of hydroxylated HIF-1a peptide,"2 uM compound 14, time 3.49667 min",0.1173 µM and 0.1355 µM and 0.125 µM
same,SPE-MS determined concentration of hydroxylated HIF-1a peptide,"2 uM compound 14, time 4.19733 min",0.1246 µM and 0.1503 µM and 0.1494 µM
same,SPE-MS determined concentration of hydroxylated HIF-1a peptide,"4 uM compound 14, time 0.699833 min",0.04117 µM and 0.06069 µM and 0.06774 µM
same,SPE-MS determined concentration of hydroxylated HIF-1a peptide,"4 uM compound 14, time 2.098 min",0.09804 µM and 0.1128 µM and 0.1303 µM
same,SPE-MS determined concentration of hydroxylated HIF-1a peptide,"4 uM compound 14, time 2.797 min",0.119 µM and 0.1335 µM and 0.1587 µM
same,SPE-MS determined concentration of hydroxylated HIF-1a peptide,"4 uM compound 14, time 3.49667 min",0.1494 µM and 0.1576 µM and 0.1863 µM
same,SPE-MS determined concentration of hydroxylated HIF-1a peptide,"4 uM compound 14, time 4.19733 min",0.1634 µM and 0.187 µM and 0.2105 µM
same,SPE-MS determined concentration of hydroxylated HIF-1a peptide,"8 uM compound 14, time 0.699833 min",0.05237 µM and 0.05984 µM and 0.05853 µM
same,SPE-MS determined concentration of hydroxylated HIF-1a peptide,"8 uM compound 14, time 2.098 min",0.1084 µM and 0.1284 µM and 0.1223 µM
same,SPE-MS determined concentration of hydroxylated HIF-1a peptide,"8 uM compound 14, time 2.797 min",0.1357 µM and 0.1566 µM and 0.1624 µM
same,SPE-MS determined concentration of hydroxylated HIF-1a peptide,"8 uM compound 14, time 3.49667 min",0.1592 µM and 0.1706 µM and 0.1851 µM
same,SPE-MS determined concentration of hydroxylated HIF-1a peptide,"8 uM compound 14, time 4.19733 min",0.1873 µM and 0.2041 µM and 0.2053 µM
same,SPE-MS determined concentration of hydroxylated HIF-1a peptide,"16 uM compound 14, time 0.699833 min",0.04301 µM and 0.07322 µM and 0.06274 µM
same,SPE-MS determined concentration of hydroxylated HIF-1a peptide,"16 uM compound 14, time 2.098 min",0.1098 µM and 0.1258 µM and 0.1325 µM
same,SPE-MS determined concentration of hydroxylated HIF-1a peptide,"16 uM compound 14, time 2.797 min",0.1413 µM and 0.1532 µM and 0.1654 µM
same,SPE-MS determined concentration of hydroxylated HIF-1a peptide,"16 uM compound 14, time 3.49667 min",0.1747 µM and 0.1882 µM and 0.2002 µM
same,SPE-MS determined concentration of hydroxylated HIF-1a peptide,"16 uM compound 14, time 4.19733 min",0.1989 µM and 0.216 µM and 0.231 µM
same,SPE-MS determined concentration of hydroxylated HIF-1a peptide,"32 uM compound 14, time 0.699833 min",0.0551 µM and 0.06691 µM and 0.07521 µM
same,SPE-MS determined concentration of hydroxylated HIF-1a peptide,"32 uM compound 14, time 2.098 min",0.1143 µM and 0.1231 µM and 0.1358 µM
same,SPE-MS determined concentration of hydroxylated HIF-1a peptide,"32 uM compound 14, time 2.797 min",0.1568 µM and 0.1531 µM and 0.1667 µM
same,SPE-MS determined concentration of hydroxylated HIF-1a peptide,"32 uM compound 14, time 3.49667 min",0.1879 µM and 0.1751 µM and 0.1995 µM
same,SPE-MS determined concentration of hydroxylated HIF-1a peptide,"32 uM compound 14, time 4.19733 min",0.214 µM and 0.2049 µM and 0.2308 µM
same,slope of initial reaction rate,"CA1-20, 1 μM 14",0.002761 and 0.002095 and 0.002277
same,slope of initial reaction rate,"CA1-20, 2 μM 14",0.00488 and 0.004776 and 0.004739
same,slope of initial reaction rate,"CA1-20, 4 μM 14",0.007334 and 0.006606 and 0.007233
same,slope of initial reaction rate,"CA1-20, 8 μM 14",0.009175 and 0.0109 and 0.00922
same,slope of initial reaction rate,"CA1-20, 16 μM 14",0.01109 and 0.0126 and 0.01075
same,slope of initial reaction rate,"CA1-20, 32 μM 14",0.01017 and 0.00931 and 0.01176
same,slope of initial reaction rate,"HIF-1a788-822, 0.5 μM 14",0.000241 and 0.000243 and 0.000366
same,slope of initial reaction rate,"HIF-1a788-822, 1 μM 14",0.000319 and 0.00043 and 0.000499
same,slope of initial reaction rate,"HIF-1a788-822, 2 μM 14",0.000549 and 0.000605 and 0.000685
same,slope of initial reaction rate,"HIF-1a788-822, 4 μM 14",0.000653 and 0.000643 and 0.000856
same,slope of initial reaction rate,"HIF-1a788-822, 8 μM 14",0.000767 and 0.000839 and 0.000864
same,slope of initial reaction rate,"HIF-1a788-822, 16 μM 14",0.00082 and 0.000767 and 0.000893
same,slope of initial reaction rate,"HIF-1a788-822, 32 μM 14",0.000874 and 0.000847 and 0.00081
